Data reported in US8349793B2, “Method for treatment of inflammatory disease and disorder” (Heal0r, Ltd., priority 2010, dated 2013).
Where no end group is shown, it is not given here. The star is where a group is joined. Myristoyl = CCCCCCCCCCCCCC(=O)*

Assays:
[1] = system: keratinocytes; assay: Keratinocyte differentiation markers (Filaggrin, Loricrin, Keratin 1); assay type: cell-based, C57BL/6J mice; settings: concentration: EPIP1 and DAP1 1 μg/ml, 10 μg/ml, EPIP2 10 μg/ml
Method: Keratinocytes derived from C57BL/6J mice were incubated in medium containing Ca^2+ to induce keratinocytes differentiation. Cells were then incubated in the presence of […] (1 μg/ml). Cells were harvested, run on SDS PAGE gel and immunoblotted using anti-Filaggrin (Fil), anti Loricrin (Lor) and anti-Keratin 1 (K1) antibody.
(§1) FIGS. 7 and 8 presents a summary of expression data in keratinocytes utilizing various peptide PKCα inhibitors: MPDY-1 (SEQ ID NO: 21) as well as data for the peptide PKCα inhibitors AIP-1 (SEQ ID NO: 3), AIP-2 (SEQ ID NO: 20), AWOT-1 (SEQ ID NO: 5) and PPDY-1 (SEQ ID NO: 22). […] FIG. 8 presents a summary of expression data in keratinocytes for various peptide PKCα inhibitors.

[2] = system: keratinocytes; assay: Cytokine secretion in keratinocytes stimulated by LPS, TNFα or IL-17 (ELISA); assay type: cell-based, BALB/C mice
Method: To determine their effects, keratinocytes were derived from newborn BALB/C mice skin. The cells were incubated for 5 days in 24 wells plate. Cells were then incubated with PBS−/− as control or stimulated by LPS, TNFα, or IL-17. PKCα inhibitors were added as indicated. Medium containing secreted cytokines was collected after 48 hr and analyzed using ELISA. FIG. 40 is a tabular summary of cytokine secretion.
PKCδactivators were also shown to have an anti-inflammatory effect on keratinocytes and splenocytes. Keratinocytes were derived from newborn BALB/C mice skin. The cells were incubated for 5 days in 24 wells plate. Cells were then incubated with PBS−/− as control or stimulated by LPS or TNFα. The PKCδ inhibitor DAP-1 (SEQ ID NO: 16) was added. Medium containing secreted cytokines was collected after 48 hr and analyzed using ELISA. FIG. 35 is a tabular summary showing cytokine secretion in splenocytes stimulated with LPS. […] Cytokine secretion in keratinocytes stimulated by TNFα: following stimulation with 35 ng/ml TNFα. And treatment with 10 μg/ml of DAP-1, the cytokine levels of IL-1α, G-CSF, MIP-2 and KC were reduced by 95%, 70%, 20% and 30# respectively.
PKCε inhibitors were also shown to have an anti-inflammatory effect on keratinocytes. Keratinocytes were derived from newborn BALB/C mice skin. The cells were incubated for 5 days in 24 wells plate. Cells were then incubated with PBS−/− as control or stimulated by LPS or TNFα. The PKCεinhibitors EPIP-1 (SEQ ID NO: 20), EPIP-2 (SEQ ID NO: 21), or EPIP-4 (SEQ ID NO: 23) were added. Medium containing secreted cytokines was collected after 48 hr and analyzed using ELISA. FIGS. 36-39 show the results for secretion of specific cytokines while Table 8 summarizes cytokine secretion for the various PKCε inhibitors: […]

[3] = system: keratinocytes; assay: Keratinocyte migration; assay type: cell-based; set-up: concentration or dose not given beside the values
[4] = system: keratinocytes; assay: Keratinocyte proliferation in vitro (PCNA); assay type: cell-based, Balb/c mice; settings: concentration not given
Method: Primary murine keratinocytes from 2 days old Balb/c mice were grown for 5 days to reach full confluence in 0.05 mM Ca^2+ MEM medium. HO/02/10 treatment (10^−6M and 10^−5M) was applied 6 hours prior to induction of differentiation. Cells were harvested, run on SDS PAGE gel and immunoblotted using anti-PCNA antibodies. In addition, C57Black mice, 8-10 weeks of age were subjected to full thickness wounding in the upper back area to induce epidermis remodeling and differentiation. Following the wounding, mice were treated daily with HO/02/10 (ranged 40-4000 mg/kg/day) for 7 days. At the termination point, mice were euthanized and upper back skin samples were fixed in 4% paraformaldehyde solution, following paraffin embedding and slide preparation. Skin samples were then subjected to immunohistochemical staining utilizing PCNA antibody. (n=18).
as §1

[5] = system: splenocytes; assay: Cytokine secretion in splenocytes stimulated with LPS or TNFα (ELISA); assay type: cell-based, B6 mice
Source text: Inhibitory effect on activated splenocytes: Splenocytes were derived from B6 mice. […] Medium containing secreted cytokines was collected after 48 hr and analyzed using ELISA.

[6] = keratinocytes, upon LPS and TNFa activation
[7] = LPS 1 [μg/ml], peptide [10 μg/ml], 48 hr
[8] = TNF [35 ng/ml], peptide [10 μg/ml], 48 hr
[9] = keratinocytes, LPS (1 μg/ml) (EPIP4: printed 1 mg/ml), peptide concentration not given
[10] = keratinocytes, TNFa stim (35 ng/ml), 1 μg/ml of peptide (given for EPIP1, EPIP2, not for EPIP4), reduction printed with or without minus sign
[11] = LPS 1 [μg/ml], peptide [1 g/ml], 48 hr
[12] = TNF [35 ng/ml], peptide [1 g/ml], 48 hr
[13] = TNFα 25 ng/ml, peptide 1 μg/ml, 48 hr
[14] = TNFα 25 ng/ml, peptide 10 μg/ml, 48 hr
[15] = Keratinocytes, Induction: TNFα (35 ng/ml), peptide (10 μg/ml)
[16] = keratinocytes, 35 ng/ml TNFα, 10 μg/ml of DAP-1
[17] = Splenocytes, Induction: LPS (1 μg/ml) (given for DAP1 only), peptide (10 μg/ml)

Pro-Ala-Trp-His-Asp (PAWHD) [EPIP-3]
Differentiation markers: granular differentiation [1]: Reduces granular
cytokine secretion, comparison with MPDY-1 ([2]; keratinocytes, IL-17 activation): IL-17: similar effect to MPDY-1
pro-inflammatory cytokines, chemokines (effect) [2, 6]: Reduces pro-inflammatory cytokines,
pro-inflammatory cytokines, chemokines, comparison with MPDY-1 [2, 6]: chemokines, better than MPDY-1 upon
Migration, Induces [3]: (200%)
Proliferation markers (PCNA) [4]: Induces

EAVSLKPT [EPIP-1]
Differentiation markers: granular differentiation [1]: Reduces granular
Differentiation markers: spainous differentiation [1]: Reduces granular
G-CSF secretion (change) [2, 7]: −70%
IL-6 secretion (change) [2, 7]: −55%
IP-10 secretion (change) [2, 7]: −60%
KC secretion (change) [2, 7]: −100%
G-CSF secretion (change) [2, 8]: −85%
IL-6 secretion (change) [2, 8]: −95%
IP-10 secretion (change) [2, 8]: (−45%)
G-CSF secretion (change) [2, 9]: −70%
IL-6 secretion (change) [2, 9]: −55%
IP-10 secretion (change) [2, 9]: −60%
KC secretion (change) [2, 9]: −100%
Reduces Chemokines IP 10 [2, 10]: Chemokines IP 10 (45%)
Reduces proinflammatory cytokines IL-6 [2, 10]: 95%
Reduces systemic cytokines G-SCF [2, 10]: −85%
Migration, Induces [3]: (200%)
Proliferation markers (PCNA) [4]: Induces

LEPEAAAAAAGK [EPIP-4]
Differentiation markers: granular differentiation [1]: No influence
Differentiation markers: spainous differentiation [1]: reduces spainous
G-CSF secretion (change) [2, 11]: −75%
IL-6 secretion (change) [2, 11]: −55%
IP-10 secretion (change) [2, 11]: −60%
KC secretion (change) [2, 11]: −100%
G-CSF secretion (change) [2, 12]: IL-6 (−100%), G-CSF (−100%), IP-10
IL-6 secretion (change) [2, 12]: IL-6 (−100%), G-CSF (−100%), IP-10
IP-10 secretion (change) [2, 12]: (−80%)
IL-6 secretion (change) [2, 9]: Reduces proinflammatory IL-6 (−55%),
IP-10 secretion (change) [2, 9]: −60%
KC secretion (change) [2, 9]: −100%
Reduces Chemokines IP 10 [2, 10]: Chemokines IP 10 (−80%)
Reduces proinflammatory cytokines IL-6 [2, 10]: proinflammatory cytokines IL-6(−100%),
Migration, Induces [3]: (200%)
G-CSF (% reduction in secretion) [5, 13]: 45%
IFN-γ (% reduction in secretion) [5, 13]: 25%
IL-1a (% reduction in secretion) [5, 13]: 10%
IL-6 (% reduction in secretion) [5, 13]: 15%
IL-10 (% reduction in secretion) [5, 13]: 30%
IL-17 (% reduction in secretion) [5, 13]: 85%
G-CSF (% reduction in secretion) [5, 14]: 20%
IFN-γ (% reduction in secretion) [5, 14]: 55%
IL-10 (% reduction in secretion) [5, 14]: 10%
IL-17 (% reduction in secretion) [5, 14]: 90%
IP-10 (% reduction in secretion) [5, 14]: 15%
Proliferation markers (PCNA) [4]: Induces

Myristoyl-Phe-Ala-Arg-Lys-Gly-Ala-Leu (Myristoyl-FARKGAL) [AIP-2]
cytokine secretion from LPS and TNFα activated keratinocytes ([2]; FIGS. 19 to 23): decrease
cytokine secretion from IL-17A activated keratinocytes ([2]; FIGS. 24 to 27): decrease
cytokine secretion in keratinocytes ([2]; stimulated by LPS, TNFα, or IL-17, 48 hr): effective in decreasing cytokine secretion

MRAAEAAAAEPM [DAP-1]
Differentiation markers: granular differentiation [1]: induces
Reduces Chemokines: KC [2, 15]: KC (32%), MIP2
Reduces Chemokines: MIP2 [2, 15]: (30%)
Reduces proinflamatory cytokine: IL-1a [2, 15]: (40%)
Reduces proinflamatory cytokine: IL-6 [2, 15]: (20%) and IL-1a
Reduces systemic cytokine GM-CSF [2, 15]: GM-CSF (50%)
cytokine level of G-CSF reduced by [2, 16]: 70%
cytokine level of IL-1α reduced by [2, 16]: 95%
cytokine level of KC reduced by [2, 16]: 30
cytokine level of MIP-2 reduced by [2, 16]: 20%
inflammatory cytokine secretion in keratinocytes ([2]; stimulated by LPS or TNFα): significantly decease
Migration, Induces [3]: (200%)
Reduces Chemokine: KC [5, 17]: KC (32%), as
reduces proinflamatory cytokine: IL-1α [5, 17]: IL-1α (45%),
reduces systemic cytokine: G-SCF [5, 17]: (40%),
induces antiinflamatory cytokine: IL 10 ([5]; Splenocytes, Induction: LPS (1 μg/ml), DAP1 (1 μg/ml)): IL 10 (200%)
Reduces TNFa expression ([5]; Splenocytes, Induction: LPS (1 μg/ml), DAP1 (10 μg/ml)): expression (28%).
inflammatory cytokine secretion in splenocytes ([5]; stimulated with LPS): significantly decease
Proliferation markers (PCNA) [4]: Reduces

HFEDWIDHFEDWID [DAP-3]
Differentiation markers: granular differentiation [1]: induces
Reduces Chemokines: KC [2, 15]: KC (25%),
Reduces proinflamatory cytokine: IL-1a [2, 15]: (50%)
Reduces proinflamatory cytokine: IL-6 [2, 15]: (45%) and IL-1a
Reduces systemic cytokine G-SCF [2, 15]: SCF (25%),
Reduces systemic cytokine GM-CSF [2, 15]: SCF (25%),
Migration, Induces [3]: (200%)
Reduces Chemokines: MIP2 ([5]; Splenocytes, DAP3 (10 μg/ml)): MIP2 (25%)
reduces proinflamatory cytokine: IL-1α [5, 17]: IL-1α (45%),
reduces systemic cytokine: G-SCF [5, 17]: G-SCF (25%),
Proliferation markers (PCNA) [4]: induces
